{
  "source": "paper PMC3073735",
  "about": "(Chemistry & biology, 2011)",
  "origin": "cited, not measured here",
  "tested_on": "ferroportin",
  "conditions": "ref Nemeth, et al., 2006",
  "note": "Where no end group is shown, it is not given here.",
  "data": [
    {"substance": "M21Y: synthetic hepcidin mutant from the literature (DTHFPICIFCCGCCHRSKCGYCCKT-OH; disulfide (positions not given here); ends not checked; UniProt P81172 60-84, looked up, variant M21Y)", "values": [
      {"measurement": "activity compared with native hepcidin", "result": "comparable activity to native hepcidin"}
    ]}
  ]
}
